Structures can show the parent of a compound that is named as a salt.
Assay: siRNA encapsulation in lipid nanoparticles (SYBR Gold)
Format: physicochemical
Conditions: Table 2; FVII siRNA in LNP with the cationic lipid
Protocol: The lipid nanoparticles (LNPs) were formed by mixing equal volumes of lipids dissolved in alcohol with siRNA dissolved in a citrate buffer by an impinging jet process. The lipid solution contains a cationic lipid compound of the invention, a helper lipid (cholesterol), an optional neutral lipid (DSPC) and a PEG (PEG) lipid at a concentration of 8-16 mg/mL with a target of 12 mg/mL in an alcohol. The siRNA to total lipid ratio is approximately 0.05 (wt/wt). Where a LNP formulation contains four lipid components, the molar ratios of the lipids ranges from 20 to 70 mole percent for the cationic lipid with a target of 40-60, the mole percent of helper lipid ranges from 20 to 70 with a target of 30 to 50, the mole percent of neutral lipid ranges from 0-30, the mole percent of PEG lipid has a range from 1 to 6 with a target of 2 to 5. The concentration of siRNA solution ranges from 0.7 to 1.0 mg/mL with a target of 0.8 to 0.9 mg/mL in a sodium citrate: sodium chloride buffer pH 4-6, with a target of 4.5-5.5. The LNPs are formed by mixing equal volumes of lipid solution in ethanol with siRNA dissolved in a citrate buffer by an impinging jet process through a mixing device with ID ranging from 0.25 to 2.0 mm at a flow rate from 10 to 640 mL/min. The mixed LNP solution is held at room temperature for 0-24 hrs prior to a dilution step. The solution is then concentrated and diafiltered with suitable buffer by ultrafiltration or dialysis process using membranes with a MW cutoff from 30 to 500 KD. The final product is sterile filtered and stored at 4° C.
The lipid nanoparticles (LNPs) were formed by mixing equal volumes of lipids dissolved in alcohol with siRNA dissolved in a citrate buffer by an impinging jet process. The lipid solution contains a cationic lipid compound of the invention, a helper lipid (cholesterol), an optional neutral lipid (DSPC) and a stealth lipid (5010, S024, S027, or S031) at a concentration of 8-16 mg/mL with a target of 12 mg/mL in an alcohol. The siRNA to total lipid ratio is approximately 0.05 (wt/wt). Where a LNP formulation contains four lipid components, the molar ratios of the lipids ranges from 20 to 70 mole percent for the cationic lipid with a target of 40-60, the mole percent of helper lipid ranges from 20 to 70 with a target of 30 to 50, the mole percent of neutral lipid ranges from 0-30, the mole percent of PEG lipid has a range from 1 to 6 with a target of 2 to 5. The concentration of siRNA solution ranges from 0.7 to 1.0 mg/mL with a target of 0.8 to 0.9 mg/mL in a sodium citrate: sodium chloride buffer pH 4-6, with a target of 4.5-5.5. The LNPs are formed by mixing equal volumes of lipid solution in ethanol with siRNA dissolved in a citrate buffer by an impinging jet process through a mixing device with ID ranging from 0.25 to 2.0 mm at a flow rate from 10 to 640 mL/min. The mixed LNP solution is held at room temperature for 0-24 hrs prior to a dilution step. The solution is then concentrated and diafiltered with suitable buffer by ultrafiltration process using membranes with a MW cutoff from 30 to 500 KD. The final product is sterile filtered and stored at 4° C.
SYBR Gold flourescence reagent is used for the determination of siRNA encapsulation in the DLP's. DLP's with and without triton x-100 are used to determine the free siRNA and total siRNA amounts. DLP's samples with and without triton X-100 were excited at 485 nm and flourescence emission is measured at 530 nm. Encapsulation efficiency is calculated based on the following formula: Encapsulation efficiency:[([…])/(total siRNA concentration)]×100% Encapsulation Data

Compared with CCCCCCCCCCCCC(CCC(=O)OC(COC(=O)CCCCCCCCCCC)COC(=O)CCCCCCCCCCC)OC(=O)OCCCN(C)C (stereo not drawn) [Example 87, 2-((4-(((3-(dimethylamino)propoxy)carbonyl)oxy)hexadecanoyl)oxy)propane-1,3-diyl didodecanoate], CCCCCCCCCCCCC(CCC(=O)OC(COC(=O)CCCCCCCCC)COC(=O)CCCCCCCCC)OC(=O)OCCCN(CC)CC (stereo not drawn) [Example 90, 2-((4-(((3-(diethylamino)propoxy)carbonyl)oxy)hexadecanoyl)oxy)propane-1,3-diyl bis(decanoate)] is higher in “% encapsulation siRNA FVII” value: 77.5% for the first, 91.4% for the second.

Compared with CCCCC/C=C\C/C=C\CCCCCCCC(=O)OCCC(CCCCCCCCCCOC(=O)CCCCCCC)OC(=O)OCCCN(C)C (stereo not drawn) [Example 60, (9Z,12Z)-3-(((3-(dimethylamino)propoxy)carbonyl)oxy)-13-(octanoyloxy)tridecyl octadeca-9,12-dienoate], CCCCC/C=C\C/C=C\CCCCCCCC(=O)OCCC(CCCCCCCCCCCC)OC(=O)OCCCN(C)C (stereo not drawn) [Example 43, (9Z,12Z)-3-(((3-(dimethylamino)propoxy)carbonyl)oxy)pentadecyl octadeca-9,12-dienoate] is higher in “% encapsulation siRNA FVII” value: 82.4% for the first, 86.8% for the second.

Compared with CCCCCCCCCCCCC(CCOC(=O)CCCCCCCC(CCCCC)CCCCC)OC(=O)OCCCN(C)C (stereo not drawn) [Example 27, 3-(((3-(dimethylamino)propoxy)carbonyl)oxy)pentadecyl 9-pentyltetradecanoate], CCCCCCCCCCCCC(CCOC(=O)CCCC(CCCCCCC)CCCCCCC)OC(=O)OCCCN(C)C (stereo not drawn) [Example 29, 3-(((3-(dimethylamino)propoxy)carbonyl)oxy)pentadecyl 5-heptyldodecanoate] is lower in “% encapsulation siRNA FVII” value: 86.6% for the first, 86.1% for the second.

First: CCCCCCCCCCCCC(CCOC(=O)CCC(OCC(CC)CCCC)OCC(CC)CCCC)OC(=O)OCCCN(CC)CC (stereo not drawn) [Example 12, 3-(((3-(diethylamino)propoxy)carbonyl)oxy)pentadecyl 4,4-bis((2-ethylhexyl)oxy)butanoate]
Second: CCCCCCCCCCCCC(COC(=O)CCC(OCC(CC)CCCC)OCC(CC)CCCC)OC(=O)OCCCN(CC)CC (stereo not drawn) [Example 48, 2-(((3-(diethylamino)propoxy)carbonyl)oxy)tetradecyl 4,4-bis((2-ethylhexyl)oxy)butanoate]
The “% encapsulation siRNA FVII” value of the first is higher: 91.7% for the first, 89.3% for the second.

Going from CCCCC/C=C\C/C=C\CCCCCCCC(=O)OCC(COC(=O)CCCCCCC/C=C\C/C=C\CCCCC)OC(=O)CCC(CCCCCCCCCCCC)OC(=O)OCCCN(CC)CC (stereo not drawn) [Example 81, (9Z,9′Z,12Z,12′Z)-2-((4-(((3-(diethylamino)propoxy)carbonyl)oxy)hexadecanoyl)oxy)propane-1,3-diyl bis(octadeca-9,12-dienoate)] to CCCCC/C=C\C/C=C\CCCCCCCCC(CCC(=O)OC(COC(=O)CCCCCCC)COC(=O)CCCCCCC)OC(=O)OCCCN(CC)CC (stereo not drawn) [Example 95, 2-(((13Z,16Z)-4-(((3-(diethylamino)propoxy)carbonyl)oxy)docosa-13,16-dienoyl)oxy)propane-1,3-diyl dioctanoate], the “% encapsulation siRNA FVII” value rises from 48.8% to 86.9%.

Going from CCCCCC(CCCCC)CCCCCCCC(=O)OCCC(CCCCCCCCCCO)OC(=O)OCCCN(C)C (stereo not drawn) [Example 65, 3-(((3-(dimethylamino)propoxy)carbonyl)oxy)-13-hydroxytridecyl 9-pentyltetradecanoate] to CCCCCCCC(CCCCCCC)CCCC(=O)OCCC(CCCCCCCCCCO)OC(=O)OCCCN(C)C (stereo not drawn) [Example 62, 3-(((3-(dimethylamino)propoxy)carbonyl)oxy)-13-hydroxytridecyl 5-heptyldodecanoate], the “% encapsulation siRNA FVII” value rises from 39.5% to 75.2%.

Going from CCCCCCCCC(CCCCCCCC)CC(=O)OCCC(CCCCCCCCCCOC(=O)CCCCCCC)OC(=O)OCCCN(C)C (stereo not drawn) [Example 61, 3-(((3-(dimethylamino)propoxy)carbonyl)oxy)-13-(octanoyloxy)tridecyl 3-octylundecanoate] to CCCCCCCC(=O)OCCCCCCCCCCC(CCOC(=O)CCCCCCCC(CCCCC)CCCCC)OC(=O)OCCCN(C)C (stereo not drawn) [Example 66, 3-(((3-(dimethylamino)propoxy)carbonyl)oxy)-13-(octanoyloxy)tridecyl 9-pentyltetradecanoate], the “% encapsulation siRNA FVII” value falls from 85.5% to 83.4%.

Compared with CCCCCCCCCCCCC(CCOC(=O)C=C(CCCCCCCC)CCCCCCCC)OC(=O)OCCCN(C)C (stereo not drawn) [Example 25, 3-(((3-(dimethylamino)propoxy)carbonyl)oxy)pentadecyl 3-octylundec-2-enoate], CCCCCCCCCCCCC(CCOC(=O)CCCCC=C(CCCCCC)CCCCCC)OC(=O)OCCCN(C)C (stereo not drawn) [Example 26, 3-(((3-(dimethylamino)propoxy)carbonyl)oxy)pentadecyl 7-hexyltridec-6-enoate] is higher in “% encapsulation siRNA FVII” value: 87.1% for the first, 89.8% for the second.

Going from CCCCC/C=C\C/C=C\CCCCCCCCC(CCOC(=O)CCCCCCCC(CCCCC)CCCCC)OC(=O)CCCN(C)C (stereo not drawn) [Example 53, (12Z,15Z)-3-((4-(dimethylamino)butanoyl)oxy)henicosa-12,15-dien-1-yl 9-pentyltetradecanoate] to CCCCC/C=C\C/C=C\CCCCCCCCC(CCOC(=O)CCCCCC(CCCCCC)CCCCCC)OC(=O)CCCN(C)C (stereo not drawn) [Example 52, (12Z,15Z)-3-((4-(dimethylamino)butanoyl)oxy)henicosa-12,15-dien-1-yl 7-hexyltridecanoate], the “% encapsulation siRNA FVII” value falls from 85.6% to 84.6%.

Compared with CCCCCCCCCCCCC(CCOC(=O)CCCCCCC(OCCCC)OCCCC)OC(=O)OCCCN(CC)CC (stereo not drawn) [Example 20, 3-(((3-(diethylamino)propoxy)carbonyl)oxy)pentadecyl 8,8-dibutoxyoctanoate], CCCCCCCCCCCCC(CCOC(=O)CCC(COC(=O)CCCCCCC)COC(=O)CCCCCCC)OC(=O)OCCCN(CC)CC (stereo not drawn) [Example 4, 2-(10-dodecyl-3-ethyl-8,14-dioxo-7,9,13-trioxa-3-azahexadecan-16-yl)propane-1,3-diyl dioctanoate] is higher in “% encapsulation siRNA FVII” value: 76.7% for the first, 88.6% for the second.

First: CCCCC/C=C\C/C=C\CCCCCCCCC(CCOC(=O)CC(CCCCCCCC)CCCCCCCC)OC(=O)CCCN(C)C (stereo not drawn) [Example 50, (12Z,15Z)-3-((4-(dimethylamino)butanoyl)oxy)henicosa-12,15-dien-1-yl 3-octylundecanoate, formate salt]
Second: CCCCC/C=C\C/C=C\CCCCCCCCC(CCOC(=O)CCCC(CCCCCCC)CCCCCCC)OC(=O)CCCN(C)C (stereo not drawn) [Example 51, (12Z,15Z)-3-((4-(dimethylamino)butanoyl)oxy)henicosa-12,15-dien-1-yl 5-heptyldodecanoate]
The “% encapsulation siRNA FVII” value of the first is lower: 85.3% for the first, 89.2% for the second.

Compared with CCCCC/C=C\C/C=C\CCCCCCCCOC(=O)OCCC(CCCCCCCC/C=C\C/C=C\CCCCC)OC(=O)CCN(C)C (stereo not drawn) [Example 54, (12Z,15Z)-1-((((9Z,12Z)-octadeca-9,12-dien-1-yloxy)carbonyl)oxy)henicosa-12,15-dien-3-yl 3-(dimethylamino)propanoate], CCCCC/C=C\C/C=C\CCCCCCCCC(CCOC(=O)CCCCCCC/C=C\C/C=C\CCCCC)OC(=O)CCN(C)C (stereo not drawn) [Example 49, (9Z,12Z)-(12Z,15Z)-3-((3-(dimethylamino)propanoyl)oxy)henicosa-12,15-dien-1-yl octadeca-9,12-dienoate] is lower in “% encapsulation siRNA FVII” value: 88.6% for the first, 88.4% for the second.

Source: patent publication US11013696B2, “Lipids and lipid compositions for the delivery of active agents” (Novartis AG, priority 2013, dated 2021)
